Values joined by “and” are separate entries in the source; they are usually repeats but may differ in a detail not shown here. Equal values may be shown once. Toxic doses and inconclusive results are not listed.
System: L1210 leukemia ip in BDF1 mice, survival T/C
Experiment: NCI In Vivo Anticancer Drug Screen. Data for tumor model L1210 Leukemia (intraperitoneal) in B6D2F1 (BDF1) mice
Conditions: higher = longer survival
Summary of the method: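 Survival endpoint. Drug-treated group vs vehicle group, expressed as T divided by C. Tumor passaged by transplantation.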

Which results are given for CCCCCCCCCCCCCCCC(=O)OCC1OC(n2ccc(N)nc2=O)C(O)C1O (configuration not stated)?
T/C (endpoint: mean survival time, dose: 5.0 mg/kg/injection, schedule: Q01DX005 (ip), vehicle: other): 150 % of control; T/C (endpoint: mean survival time, dose: 6.0 mg/kg/injection, schedule: Q01DX009 (ip), vehicle: saline with Tween-80): 200 % of control; T/C (endpoint: mean survival time, dose: 8.8 mg/kg/injection, schedule: Q01DX009 (ip), vehicle: saline with Tween-80): 210 % of control; T/C (endpoint: mean survival time, dose: 10.0 mg/kg/injection, schedule: Q01DX005 (ip), vehicle: other): 182 % of control and 183 % of control and 198 % of control; T/C (endpoint: mean survival time, dose: 10.0 mg/kg/injection, schedule: Q06HX008 (ip), vehicle: other): 236 % of control; T/C (endpoint: mean survival time, dose: 12.0 mg/kg/injection, schedule: Q01DX009 (ip), vehicle: saline with Tween-80): 242 % of control; T/C (endpoint: mean survival time, dose: 12.5 mg/kg/injection, schedule: Q01DX001 (ip), vehicle: saline): 153 % of control; T/C (endpoint: mean survival time, dose: 13.0 mg/kg/injection, schedule: Q01DX009 (ip), vehicle: saline with Tween-80): 244 % of control (2×) and 260 % of control; T/C (endpoint: mean survival time, dose: 15.0 mg/kg/injection, schedule: Q01DX005 (ip), vehicle: other): 210 % of control and 231 % of control and 237 % of control; T/C (endpoint: mean survival time, dose: 15.0 mg/kg/injection, schedule: Q01DX008 (ip), vehicle: other): 226 % of control; T/C (endpoint: mean survival time, dose: 15.0 mg/kg/injection, schedule: Q12HX008 (ip), vehicle: other): 292 % of control; T/C (endpoint: mean survival time, dose: 16.0 mg/kg/injection, schedule: Q06HX008 (ip), vehicle: other): 267 % of control; T/C (endpoint: mean survival time, dose: 20.0 mg/kg/injection, schedule: Q01DX005 (ip), vehicle: other): 220 % of control and 224 % of control and 245 % of control; T/C (endpoint: mean survival time, dose: 20.0 mg/kg/injection, schedule: Q01DX008 (ip), vehicle: other): 264 % of control; T/C (endpoint: mean survival time, dose: 24.0 mg/kg/injection, schedule: Q01DX009 (oral), vehicle: saline with Tween-80): 119 % of control; T/C (endpoint: mean survival time, dose: 25.0 mg/kg/injection, schedule: Q01DX001 (ip), vehicle: other): 153 % of control and 154 % of control and 174 % of control; T/C (endpoint: mean survival time, dose: 25.0 mg/kg/injection, schedule: Q01DX001 (ip), vehicle: saline with Tween-80): 196 % of control; T/C (endpoint: mean survival time, dose: 25.0 mg/kg/injection, schedule: Q01DX001 (ip), vehicle: saline): 165 % of control; T/C (endpoint: mean survival time, dose: 25.0 mg/kg/injection, schedule: Q01DX005 (ip), vehicle: other): 243 % of control and 258 % of control and 273 % of control; T/C (endpoint: mean survival time, dose: 25.0 mg/kg/injection, schedule: Q01DX008 (ip), vehicle: other): 267 % of control; T/C (endpoint: mean survival time, dose: 25.0 mg/kg/injection, schedule: Q02DX008 (ip), vehicle: other): 270 % of control; T/C (endpoint: mean survival time, dose: 25.0 mg/kg/injection, schedule: Q04DX008 (ip), vehicle: other): 245 % of control and 252 % of control; T/C (endpoint: mean survival time, dose: 25.0 mg/kg/injection, schedule: Q06DX008 (ip), vehicle: other): 165 % of control and 187 % of control; T/C (endpoint: mean survival time, dose: 25.0 mg/kg/injection, schedule: Q08DX008 (ip), vehicle: other): 178 % of control; T/C (endpoint: mean survival time, dose: 27.0 mg/kg/injection, schedule: Q02DX005 (ip), vehicle: saline with Tween-80): 255 % of control; T/C (endpoint: mean survival time, dose: 30.0 mg/kg/injection, schedule: Q01DX009 (ip), vehicle: saline with Tween-80): 270 % of control; T/C (endpoint: mean survival time, dose: 30.0 mg/kg/injection, schedule: Q03HX008 (ip), vehicle: other): 192 % of control; T/C (endpoint: mean survival time, dose: 32.0 mg/kg/injection, schedule: Q04DX003 (ip), vehicle: saline with Tween-80): 198 % of control; T/C (endpoint: mean survival time, dose: 35.0 mg/kg/injection, schedule: Q01DX005 (ip), vehicle: other): 254 % of control and 255 % of control; T/C (endpoint: mean survival time, dose: 36.0 mg/kg/injection, schedule: Q01DX009 (oral), vehicle: saline with Tween-80): 113 % of control; T/C (endpoint: mean survival time, dose: 40.0 mg/kg/injection, schedule: Q03HX008 (ip), vehicle: other): 151 % of control and 167 % of control; T/C (endpoint: mean survival time, dose: 49.0 mg/kg/injection, schedule: Q04DX003 (ip), vehicle: saline with Tween-80): 271 % of control; T/C (endpoint: mean survival time, dose: 50.0 mg/kg/injection, schedule: Q01DX001 (ip), vehicle: other): 173 % of control and 187 % of control and 211 % of control; T/C (endpoint: mean survival time, dose: 50.0 mg/kg/injection, schedule: Q01DX001 (ip), vehicle: saline with Tween-80): 165 % of control; T/C (endpoint: mean survival time, dose: 50.0 mg/kg/injection, schedule: Q01DX001 (ip), vehicle: saline): 186 % of control and 207 % of control; T/C (endpoint: mean survival time, dose: 50.0 mg/kg/injection, schedule: Q01DX009 (ip), vehicle: saline): 115 % of control; T/C (endpoint: mean survival time, dose: 50.0 mg/kg/injection, schedule: Q04DX008 (ip), vehicle: other): 216 % of control; T/C (endpoint: mean survival time, dose: 50.0 mg/kg/injection, schedule: Q06DX008 (ip), vehicle: other): 245 % of control and 283 % of control; T/C (endpoint: mean survival time, dose: 50.0 mg/kg/injection, schedule: Q08DX008 (ip), vehicle: other): 283 % of control and 293 % of control; T/C (endpoint: mean survival time, dose: 60.0 mg/kg/injection, schedule: Q02DX005 (ip), vehicle: saline with Tween-80): 182 % of control; T/C (endpoint: mean survival time, dose: 64.0 mg/kg/injection, schedule: Q04DX003 (oral), vehicle: saline with Tween-80): 101 % of control; T/C (endpoint: mean survival time, dose: 67.0 mg/kg/injection, schedule: Q01DX001 (ip), vehicle: saline with Tween-80): 162 % of control and 220 % of control; T/C (endpoint: mean survival time, dose: 70.0 mg/kg/injection, schedule: Q01DX001 (ip), vehicle: saline with Tween-80): 239 % of control; T/C (endpoint: mean survival time, dose: 75.0 mg/kg/injection, schedule: Q02DX004 (ip), vehicle: other): 244 % of control; T/C (endpoint: mean survival time, dose: 90.0 mg/kg/injection, schedule: Q02DX004 (ip), vehicle: other): 283 % of control; T/C (endpoint: mean survival time, dose: 98.0 mg/kg/injection, schedule: Q04DX003 (oral), vehicle: saline with Tween-80): 106 % of control; T/C (endpoint: mean survival time, dose: 100.0 mg/kg/injection, schedule: Q01DX001 (ip), vehicle: other): 220 % of control and 253 % of control and 281 % of control; T/C (endpoint: mean survival time, dose: 100.0 mg/kg/injection, schedule: Q01DX001 (ip), vehicle: saline): 276 % of control and 293 % of control; T/C (endpoint: mean survival time, dose: 100.0 mg/kg/injection, schedule: Q01DX009 (ip), vehicle: saline): 96 % of control; T/C (endpoint: mean survival time, dose: 100.0 mg/kg/injection, schedule: Q02DX008 (ip), vehicle: other): 194 % of control; T/C (endpoint: mean survival time, dose: 100.0 mg/kg/injection, schedule: Q04DX008 (ip), vehicle: other): 286 % of control; T/C (endpoint: mean survival time, dose: 120.0 mg/kg/injection, schedule: Q03DX004 (ip), vehicle: other): 235 % of control; T/C (endpoint: mean survival time, dose: 140.0 mg/kg/injection, schedule: Q01DX001 (oral), vehicle: saline with Tween-80): 98 % of control; T/C (endpoint: mean survival time, dose: 146.0 mg/kg/injection, schedule: Q04DX003 (oral), vehicle: saline with Tween-80): 106 % of control; T/C (endpoint: mean survival time, dose: 150.0 mg/kg/injection, schedule: Q04DX008 (ip), vehicle: other): 233 % of control and 235 % of control; T/C (endpoint: mean survival time, dose: 150.0 mg/kg/injection, schedule: Q08DX008 (ip), vehicle: other): 291 % of control; T/C (endpoint: mean survival time, dose: 200.0 mg/kg/injection, schedule: Q01DX001 (ip), vehicle: saline): 283 % of control; T/C (endpoint: mean survival time, dose: 214.0 mg/kg/injection, schedule: Q01DX001 (oral), vehicle: saline with Tween-80): 97 % of control; T/C (endpoint: mean survival time, dose: 220.0 mg/kg/injection, schedule: Q04DX003 (oral), vehicle: saline with Tween-80): 104 % of control; T/C (endpoint: mean survival time, dose: 225.0 mg/kg/injection, schedule: Q01DX001 (ip), vehicle: saline with Tween-80): 249 % of control; T/C (endpoint: mean survival time, dose: 250.0 mg/kg/injection, schedule: Q01DX001 (ip), vehicle: other): 175 % of control and 210 % of control and 234 % of control; T/C (endpoint: mean survival time, dose: 320.0 mg/kg/injection, schedule: Q01DX001 (oral), vehicle: saline with Tween-80): 108 % of control; T/C (endpoint: mean survival time, dose: 337.0 mg/kg/injection, schedule: Q01DX001 (ip), vehicle: saline with Tween-80): 172 % of control; T/C (endpoint: mean survival time, dose: 400.0 mg/kg/injection, schedule: Q01DX001 (ip), vehicle: saline): 156 % of control; T/C (endpoint: mean survival time, dose: 480.0 mg/kg/injection, schedule: Q01DX001 (oral), vehicle: saline with Tween-80): 101 % of control; T/C (endpoint: median survival time, dose: 75.0 mg/kg/injection, schedule: Q01DX001 (ip), vehicle: saline): 288 % of control; T/C (endpoint: median survival time, dose: 150.0 mg/kg/injection, schedule: Q01DX001 (ip), vehicle: saline): 288 % of control; T/C (endpoint: median survival time, dose: 300.0 mg/kg/injection, schedule: Q01DX001 (ip), vehicle: none): 98 % of control; T/C (endpoint: median survival time, dose: 300.0 mg/kg/injection, schedule: Q01DX001 (ip), vehicle: saline): 94 % of control

Which results are given for CSc1ccc2[nH]c3c(c2c1)CCNC3?
T/C (endpoint: mean survival time, dose: 100.0 mg/kg/injection, schedule: Q04DX003 (ip), vehicle: saline with Tween-80): 108 % of control; T/C (endpoint: mean survival time, dose: 200.0 mg/kg/injection, schedule: Q04DX003 (ip), vehicle: saline with Tween-80): 105 % of control; T/C (endpoint: mean survival time, dose: 400.0 mg/kg/injection, schedule: Q04DX003 (ip), vehicle: saline with Tween-80): 98 % of control

Source: PubChem BioAssay AID248 (DTP/NCI, 2004)
